The source of these data is patent US20230117470A1, “SUBSTITUTED PYRAZOLE COMPOUNDS AS TOLL RECEPTOR INHIBITORS” (BRISTOL-MYERS SQUIBB COMPANY, priority 2019, published 2023).

Common to all, as to format: cell-based
In one test the target is T1, human TLR7 (Homo sapiens, UniProt Q9NYK1).
T1 construct: host or cells: HEK-Blue cells
T1 sequence (Q9NYK1 27-1049): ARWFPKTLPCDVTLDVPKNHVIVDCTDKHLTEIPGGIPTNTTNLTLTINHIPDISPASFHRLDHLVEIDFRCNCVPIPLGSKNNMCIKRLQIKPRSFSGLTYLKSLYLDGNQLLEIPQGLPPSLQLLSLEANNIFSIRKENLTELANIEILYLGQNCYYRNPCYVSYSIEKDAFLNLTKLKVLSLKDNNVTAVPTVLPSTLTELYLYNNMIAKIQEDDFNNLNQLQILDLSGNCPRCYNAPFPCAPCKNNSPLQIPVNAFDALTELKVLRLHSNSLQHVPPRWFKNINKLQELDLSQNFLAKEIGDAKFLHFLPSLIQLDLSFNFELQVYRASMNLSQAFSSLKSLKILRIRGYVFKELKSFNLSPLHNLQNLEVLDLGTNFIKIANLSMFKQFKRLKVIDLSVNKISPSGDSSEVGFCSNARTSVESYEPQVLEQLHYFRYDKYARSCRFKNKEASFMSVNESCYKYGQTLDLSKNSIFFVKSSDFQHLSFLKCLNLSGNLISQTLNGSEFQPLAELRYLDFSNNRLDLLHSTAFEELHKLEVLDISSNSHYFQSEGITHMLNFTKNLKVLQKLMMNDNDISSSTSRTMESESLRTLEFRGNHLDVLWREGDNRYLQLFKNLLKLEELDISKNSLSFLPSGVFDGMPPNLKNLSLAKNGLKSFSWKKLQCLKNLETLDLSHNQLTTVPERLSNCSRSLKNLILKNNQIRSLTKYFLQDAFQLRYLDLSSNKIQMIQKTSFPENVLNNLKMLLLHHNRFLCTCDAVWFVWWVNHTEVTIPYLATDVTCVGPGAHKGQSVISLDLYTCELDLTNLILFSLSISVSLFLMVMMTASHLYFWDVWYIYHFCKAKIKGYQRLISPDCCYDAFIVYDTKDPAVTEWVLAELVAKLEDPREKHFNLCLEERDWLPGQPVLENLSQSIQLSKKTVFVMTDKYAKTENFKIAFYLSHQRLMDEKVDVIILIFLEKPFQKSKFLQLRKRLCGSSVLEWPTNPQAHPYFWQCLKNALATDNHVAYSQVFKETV
Kind of test: TLR7 inhibition reporter assay (HEK-Blue cells, SEAP reporter, gardiquimod stimulation). Particulars: HEK-Blue cells overexpressing human TLR7, SEAP reporter, gardiquimod 7.5 μM. A digest of the protocol:
(§1)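 30 min RT cpd pre-incubation (0.05 nM–50 μM final dose response) → agonist: gardiquimod 7.5 μM / R848 15.9 μM / ODN2006 5 nM for TLR7/8/9 resp. → 22 h, 37° C → SEAP via detection medium. % inhibition vs agonist+DMSO and reference inhibitor controls.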
(In a reporter assay the amount or activity of a reporter protein is the signal.)

A further test concerns the target T2, human TLR8 (Homo sapiens, UniProt Q9NR97).
T2 construct: host or cells: HEK-Blue cells
T2 sequence (Q9NR97 27-1041): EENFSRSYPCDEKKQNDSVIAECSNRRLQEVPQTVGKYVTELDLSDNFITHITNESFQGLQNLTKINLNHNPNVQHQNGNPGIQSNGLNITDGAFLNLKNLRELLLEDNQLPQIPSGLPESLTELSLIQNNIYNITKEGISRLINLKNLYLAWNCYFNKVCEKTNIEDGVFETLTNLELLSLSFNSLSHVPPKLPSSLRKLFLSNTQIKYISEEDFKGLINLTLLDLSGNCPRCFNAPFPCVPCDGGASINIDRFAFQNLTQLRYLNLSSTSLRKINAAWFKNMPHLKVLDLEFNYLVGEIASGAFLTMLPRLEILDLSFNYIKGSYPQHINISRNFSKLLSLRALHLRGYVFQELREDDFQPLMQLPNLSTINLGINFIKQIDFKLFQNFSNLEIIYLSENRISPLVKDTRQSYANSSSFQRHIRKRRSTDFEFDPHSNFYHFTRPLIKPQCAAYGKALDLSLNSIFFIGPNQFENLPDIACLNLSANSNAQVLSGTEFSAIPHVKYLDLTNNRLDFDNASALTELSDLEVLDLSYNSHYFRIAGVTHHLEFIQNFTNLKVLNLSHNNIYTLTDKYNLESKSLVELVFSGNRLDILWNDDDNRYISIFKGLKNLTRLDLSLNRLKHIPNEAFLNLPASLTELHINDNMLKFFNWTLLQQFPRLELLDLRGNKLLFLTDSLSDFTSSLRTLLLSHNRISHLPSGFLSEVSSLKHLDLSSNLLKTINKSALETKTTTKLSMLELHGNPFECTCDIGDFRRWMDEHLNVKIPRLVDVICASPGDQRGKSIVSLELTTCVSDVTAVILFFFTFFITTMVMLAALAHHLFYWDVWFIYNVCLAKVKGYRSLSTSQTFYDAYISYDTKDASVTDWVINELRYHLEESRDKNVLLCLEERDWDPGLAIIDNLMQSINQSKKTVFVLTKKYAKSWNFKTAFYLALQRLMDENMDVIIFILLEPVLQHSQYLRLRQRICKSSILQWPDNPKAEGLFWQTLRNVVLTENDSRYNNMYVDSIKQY
Kind of test: TLR8 inhibition reporter assay (HEK-Blue cells, SEAP reporter, R848 stimulation). Particulars: HEK-Blue cells overexpressing human TLR8, SEAP reporter, R848 15.9 μM. A digest of the protocol:
as §1

The target of the next test is T3, human TLR9 (Homo sapiens, UniProt Q9NR96).
T3 construct: host or cells: HEK-Blue cells
T3 sequence (Q9NR96 26-1032): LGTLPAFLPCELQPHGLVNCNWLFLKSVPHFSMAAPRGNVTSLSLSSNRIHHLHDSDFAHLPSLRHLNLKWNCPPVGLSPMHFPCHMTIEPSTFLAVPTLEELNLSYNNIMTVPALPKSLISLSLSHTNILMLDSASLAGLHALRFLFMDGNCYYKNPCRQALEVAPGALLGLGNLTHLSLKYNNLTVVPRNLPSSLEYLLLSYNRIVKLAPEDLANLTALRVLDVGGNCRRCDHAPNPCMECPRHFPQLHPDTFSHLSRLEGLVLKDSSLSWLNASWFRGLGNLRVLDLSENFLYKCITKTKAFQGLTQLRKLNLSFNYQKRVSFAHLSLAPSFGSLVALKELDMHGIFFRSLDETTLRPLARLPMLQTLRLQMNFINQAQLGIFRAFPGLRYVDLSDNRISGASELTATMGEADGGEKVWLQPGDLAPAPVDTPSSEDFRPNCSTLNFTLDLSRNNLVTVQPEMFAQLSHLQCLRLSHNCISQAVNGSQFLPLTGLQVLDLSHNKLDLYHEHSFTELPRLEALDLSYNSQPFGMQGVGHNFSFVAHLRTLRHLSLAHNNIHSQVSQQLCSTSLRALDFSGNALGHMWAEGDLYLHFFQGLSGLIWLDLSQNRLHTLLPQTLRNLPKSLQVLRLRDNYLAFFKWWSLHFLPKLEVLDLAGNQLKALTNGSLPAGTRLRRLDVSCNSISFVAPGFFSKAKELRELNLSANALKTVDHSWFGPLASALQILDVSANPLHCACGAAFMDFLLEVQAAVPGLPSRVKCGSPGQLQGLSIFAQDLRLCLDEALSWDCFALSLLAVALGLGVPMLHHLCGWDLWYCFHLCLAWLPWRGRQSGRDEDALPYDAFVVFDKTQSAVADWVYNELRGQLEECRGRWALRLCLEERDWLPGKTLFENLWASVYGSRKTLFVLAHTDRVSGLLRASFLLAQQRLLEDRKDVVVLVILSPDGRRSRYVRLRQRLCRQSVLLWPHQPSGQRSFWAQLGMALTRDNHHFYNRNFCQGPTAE
Description: TLR9 inhibition reporter assay (HEK-Blue cells, SEAP reporter, ODN2006 stimulation). Particulars: HEK-Blue cells overexpressing human TLR9, SEAP reporter, ODN2006 5 nM. A digest of the protocol:
as §1

A word on the IC50: it is the concentration at which inhibition is half-maximal. Low readings indicate higher potency, high ones lower potency. As for `Cc1cc(-c2[nH]nc(C(=O)NCC3CN(CC(C)(C)C)CCO3)c2C(C)C)cn2ncnc12` (stereo not drawn) [Example 145], the IC50 on human TLR7 is 60.3 nM; against human TLR8, 41.6 nM; on human TLR9 it was > 50000 nM.
Turning to `Cc1cc(-c2c(C(C)C)c(C(=O)NC3CCN(CC(F)(F)F)CC3)nn2CC(F)(F)F)cn2ncnc12` [Example 175, 4-isopropyl-5-(8-methyl-[1,2,4]triazolo[1,5-a]pyridin-6-yl)-1-(2,2,2-trifluoroethyl)-N-(1-(2,2,2-trifluoroethyl)piperidin-4-yl)-1H-pyrazole-3-carboxamide], the IC50 against human TLR7 was found to be 3.76 nM; against human TLR8, 6.23 nM; against human TLR9, 6250 nM.
The corresponding values for `Cc1cc(-c2[nH]nc(C3CCN(C(=O)CN(C)C)CC3)c2C(C)C)cn2ncnc12` [compound 209] are 0.32 nM, 0.14 nM and 4170 nM.
For `COc1cc(-c2[nH]nc(-c3ccc(C4CCN(C)CC4)cn3)c2C(C)C)cn2ncnc12` [Example 348], the figures for the IC50 against human TLR7, against human TLR8 and against human TLR9 were 19.1 nM, 22.4 nM and > 50000 nM, respectively.
For `Cc1cc(-c2[nH]nc(C(=O)N[C@H]3CCCN(C)C3)c2C(C)C)cn2ncnc12` [Example 162], the IC50 stood at 2.6 nM at human TLR7, 15.7 nM at human TLR8 and 20300 nM against human TLR9.
The corresponding values for `COc1cc(-c2[nH]nc(C(=O)NC3CCN(C)CC3)c2C(C)C)cn2ncnc12` [Example 11] are 3.78 nM, 9.31 nM and 18500 nM.
The corresponding values for `Cc1cc(-c2[nH]nc(C(=O)N[C@H]3CC[C@H](NCC(C)(C)C)CC3)c2C(C)C)cn2ncnc12` [Example 106] are 2.25 nM, 90.9 nM and 14300 nM.
In the same order, the values of `Cc1cc(-c2[nH]nc(C(=O)NC3CCN(CC(F)(F)F)CC3)c2C(C)C)cn2ncnc12` [Example 173] are 8.56 nM, 7.58 nM and 7790 nM.
For the molecule `Cc1cc(-c2[nH]nc(C3CCC(N4CCN(C)CC4)CC3)c2C(C)C)cn2ncnc12` (single isomer, unassigned) [Example 286], the IC50 was 25.6 nM on human TLR7, 14.6 nM on human TLR8 and > 50000 nM at human TLR9.
In the same order, the values of `COCCN1CCC(c2cnc(-c3n[nH]c(-c4cc(OC)c5ncnn5c4)c3C(C)C)cn2)CC1` [Example 396] are 102 nM, 53.9 nM and > 50000 nM.
In the same order, the values of `Cc1cc(-c2[nH]nc(C(=O)N[C@H]3CC[C@H](N)CC3)c2C(C)C)cn2ncnc12` [Example 46] are 0.57 nM, 0.11 nM and 2500 nM.
The corresponding values for `Cc1cc(-c2[nH]nc(-c3nc4ccc(NC(C)C)cc4s3)c2C(C)C)cn2ncnc12` [Example 258] are 36.5 nM, 9.16 nM and 29400 nM.
With `Cc1cc(-c2[nH]nc(C(=O)NC3CCC(N(C)C)CC3)c2C(C)C)cn2ncnc12` (stereo not drawn) [Example 7], the IC50 against human TLR7 came to 7.8 nM; on human TLR8, 6.59 nM; against human TLR9, 5470 nM.
With `Cc1cc(-c2[nH]nc(C3CCC(NC4CCN(C(C)C)CC4)CC3)c2C(C)C)cn2ncnc12` (single isomer, unassigned) [Example 289], the IC50 against human TLR7 is 5.19 nM; at human TLR8 it was 0.97 nM; at human TLR9, 19700 nM.
`Cc1cc(-c2[nH]nc(C(=O)NCC3CN(CC(C)(C)C)CCO3)c2C(C)C)cn2ncnc12` (stereo not drawn) [Example 144]: the IC50 was found to be 7.26 nM on human TLR7, 3.56 nM against human TLR8 and 15200 nM at human TLR9.
Regarding `Cc1cc(-c2[nH]nc(C(=O)NC3CCNCC3)c2C(C)C)cn2ncnc12` [Example 43, 4-isopropyl-5-(8-methyl-[1,2,4]triazolo[1,5-a]pyridin-6-yl)-N-(piperidin-4-yl)-1H-pyrazole-3-carboxamide], the IC50 at human TLR7 was 2.54 nM; against human TLR8, 5.22 nM; against human TLR9, > 50000 nM.
In the same order, the values of `Cc1cc(-c2[nH]nc(-c3ccc4c(c3)CCN(CC(C)(C)O)C4)c2C(C)C)cn2ncnc12` [Example 264] are 26.8 nM, 22.9 nM and 22000 nM.
Turning to `COc1cc(-c2[nH]nc(-c3ccc(C4CN(CC(C)(C)O)C4)cc3)c2C(C)C)cn2ncnc12` [Example 337], the IC50 turned out to be 8.27 nM on human TLR7, 7.61 nM at human TLR8 and 42400 nM on human TLR9.
As for `Cc1cc(-c2[nH]nc(C(=O)N3CCOCC3)c2C(C)C)cn2ncnc12` [Example 30], the IC50 on human TLR7 is 4.37 nM; against human TLR8, 2.07 nM; against human TLR9, 14800 nM.
Turning to `Cc1cc(-c2[nH]nc(-c3ccc(N4CCNCC4)cc3)c2C(C)C)cn2ncnc12` [Example 406], the concentration for half-maximal inhibition (IC50) was 2.74 nM against human TLR7, 142 nM against human TLR8 and > 50000 nM at human TLR9.
